According to ChEMBL document CHEMBL2434821, “New phenstatin-fatty acid conjugates: synthesis and evaluation” (Bioorg Med Chem Lett, 2013):
Activity calls are given as the source filed them. The calls are words filed in the database; no cut-off is given here.

Tests used:
[1] = test system: HEK293; experiment: Cytotoxicity against human HEK293 cells after 72 hrs by MTT assay; type: functional, cell-based; conditions: HEK293, 72 h
[2] = Cytotoxicity against human H460 cells after 72 hrs by MTT assay; type: functional, cell-based; conditions: NCI-H460, 72 h
[3] = test system: MCF7; experiment: Cytotoxicity against human MCF7 cells after 72 hrs by MTT assay; type: functional, cell-based; conditions: MCF7, 72 h
[4] = Cytotoxicity against human KB-3-1 cells after 72 hrs by MTT assay; type: functional, cell-based; conditions: KB 3-1, 72 h
[5] = test system: MCF7; experiment: Cytotoxicity against human MCF7 cells assessed as inhibition of cell survival at 0.5 uM after 72 hrs by MTT assay relative to control; type: functional; conditions: MCF7, 72 h
[6] = test system: HEK293; experiment: Cytotoxicity against human HEK293 cells assessed as inhibition of cell survival at 0.5 uM after 72 hrs by MTT assay relative to control; type: functional; conditions: HEK293, 72 h
[7] = Cytotoxicity against human H460 cells assessed as inhibition of cell survival at 0.5 uM after 72 hrs by MTT assay relative to control; type: functional; conditions: NCI-H460, 72 h
[8] = test system: HEK293; experiment: Cytotoxicity against human HEK293 cells assessed as inhibition of cell survival at 5 to 15 uM after 72 hrs by MTT assay relative to control; type: functional, cell-based
[9] = test system: MCF7; experiment: Cytotoxicity against human MCF7 cells assessed as inhibition of cell survival at 5 to 15 uM after 72 hrs by MTT assay relative to control; type: functional, cell-based
[10] = test system: NCI-H460; experiment: Cytotoxicity against human H460 cells assessed as inhibition of cell survival at 5 to 15 uM after 72 hrs by MTT assay relative to control; type: functional, cell-based
[11] = test system: KB 3-1; experiment: Cytotoxicity against human KB-3-1 cells assessed as inhibition of cell survival at 5 to 15 uM after 72 hrs by MTT assay relative to control; type: functional, cell-based

SMILES	IC50 [1]	IC50 [2]	IC50 [3]	IC50 [4]	inhibition at 0.5 µM [5]	inhibition at 0.5 µM [6]	inhibition at 0.5 µM [7]	inhibition [8]	inhibition [9]	inhibition [10]	inhibition [11]
CCCCCCCCCCCCCCCCCC(=O)Oc1ccc(C(=O)c2cc(OC)c(OC)c(OC)c2)cc1OC	15600 nM	17600 nM	26900 nM	16900 nM	–	–	–	–	–	–	–
CCCCCCCC/C=C\CCCCCCCC(=O)Oc1cc(C(=O)c2cc(OC)c(OC)c(OC)c2)ccc1OC	950 nM	909 nM	943 nM	786 nM	–	–	–	–	–	–	–
COc1cc(C(=O)c2cc(OC)c(OC)c(OC)c2)ccc1O [ISOPHENSTATIN]	196 nM	188 nM	199 nM	146 nM	–	–	–	–	–	–	–
COc1cc2c(c(OC)c1OC)-c1ccc(OC)c(=O)cc1[C@@H](NC(C)=O)CC2 [COLCHICINE]	9 nM	–	19 nM	18 nM	–	–	–	–	–	–	–
CCCCCCCCCCCCCCCCCC(=O)Oc1cc(C(=O)c2cc(OC)c(OC)c(OC)c2)ccc1OC	2640 nM	4700 nM	3350 nM	2780 nM	–	–	–	–	–	–	–
CCCCCCCC/C=C\CCCCCCCC(=O)Oc1ccc(C(=O)c2cc(OC)c(OC)c(OC)c2)cc1OC	2360 nM	2200 nM	2170 nM	1720 nM	–	–	–	–	–	–	–
CCCCC/C=C\C/C=C\CCCCCCCC(=O)Oc1cc(C(=O)c2cc(OC)c(OC)c(OC)c2)ccc1OC	210 nM	176 nM	181 nM	163 nM	20%	20%	20%	–	–	–	–
CCCCC/C=C\C/C=C\CCCCCCCC(=O)Oc1ccc(C(=O)c2cc(OC)c(OC)c(OC)c2)cc1OC	903 nM	867 nM	745 nM	547 nM	–	–	–	Active	Active	Active	Active
COc1ccc(C(=O)c2cc(OC)c(OC)c(OC)c2)cc1O [PHENSTATIN]	23 nM	20 nM	19 nM	15 nM	–	–	–	–	–	–	–
